For one data set, the target named is T1, GPR84 F187A (Homo sapiens, UniProt Q9NQS5, F187A).
T1 construct: FLAG (N); eYFP (C); expressed in transfected cells; host or cells: HEK293T, transient
Put plainly: BRET β-arrestin-1 recruitment assay, HEK293T cells. To be noted: for EC50: F187A, read-out: β-arrestin-1 pEC50 ± SEM (converted). Type of data set: cell-based. As for the experimental part: (§1) As a control, cells were transfected with 100:1 ratio of empty plasmid and the appropriate arrestin isoform fused to nano-luciferase. After 24 h, cells were seeded at 50,000 cells per well in poly-D-lysine-coated white 96-well plates and incubated at 37°C overnight. After 24 h, cells were washed twice with Hank’s balanced salt solution (HBSS), pH 7.4, and 10 μl/well of the nano-luciferase substrate coelenterazine-h (Nanolight Technologies) was added to a final concentration of 5 μM. Cells were incubated in the dark for 10 min at 37°C, after which 10 μl/well of the agonist compound was added, and the cells were incubated for another 5 minutes. 15 min after coelenterazine-h addition, reading of emission signals were performed on a PHERAstar FS plate reader (BMG Labtech) at 475 and 535 nm, representing nano-luciferase and eYFP emission signals, respectively. The net bioluminescence resonance energy transfer (BRET) ratio (mBRET) was calculated as follows: mBRET=(BRET^sample−BRET^control)*1000whereBRET=Emission^535nm/Emission^475nm

The next data set deals with T2, GPR84 S331A (Homo sapiens, UniProt Q9NQS5, S331A).
T2 construct: FLAG (N); eYFP (C); expressed in transfected cells; host or cells: HEK293T, transient
Put plainly: BRET β-arrestin-1 recruitment assay, HEK293T cells. Type of data set: cell-based. Conditions: for Emax: HEK-293T. On the procedure: as §1
In general terms: Bioluminescence resonance energy transfer reports proximity on the nanometre scale.

The next data set has as its target T3, GPR84 Y332F (Homo sapiens, UniProt Q9NQS5, Y332F).
T3 construct: FLAG (N); Gαi2-Cys352Ile (fusion partner) (C); expressed in transfected cells
Briefly: BRET β-arrestin-1 recruitment assay, HEK293T cells. Type of data set: cell-based. On the procedure:
as §1

A further data set concerns the target T4, wild type GPR84 (Homo sapiens, UniProt Q9NQS5).
T4 construct: expressed in transfected cells
Briefly: pThr263/pThr264 immunoblot of immunoprecipitated GPR84-eYFP. Type of data set: cell-based. To be noted: 1 μM. As for the experimental part:
(§2) eYFP-linked receptor constructs were immunoprecipitated from 200 μl cell lysates using GFP-Trap® agarose beads (Proteintech) according to manufacturer’s instructions. Immunocomplexes were washed three times in washing buffer, resuspended in 100 μl 2 × SDS-PAGE sample buffer and incubated at 60 °C for 10 min. Following centrifugation at 2500g for 5 min, 20 μl of immunoprecipitated proteins was resolved by SDS-PAGE on 4% to 12% BisTris gels. After separation, the proteins were transferred electrophoretically onto nitrocellulose membrane, which was then blocked using 5% bovine serum albumin (BSA) in Tris-buffered saline (TBS, 50 mM Tris-Cl, 150 mM NaCl, pH 7.6) for 1 h at room temperature on an orbital shaker. The membrane was then incubated with appropriate primary antibody in 5% BSA in TBS supplemented with 0.1% Tween (TBS-T) overnight at 4 °C. Anti-pThr^263/pThr^264 antiserum was diluted 1:2000 and anti-GFP was diluted 1:10,000. Subsequently, the membrane was washed (3 × 10 min with TBS-T) and incubated for 2 h with anti-rabbit secondary antibody diluted 1:10,000 in 5% BSA in TBS-T. After washing (3 × 10 min with TBS-T), proteins were detected using an Odyssey imaging system (Licor) according to the manufacturer’s instructions.
A general note: Immunoblotting shows a protein as a band on a membrane.

The next data set addresses GPR84 (Homo sapiens, UniProt Q9NQS5). Put plainly: CHO-K1-based PathHunter β-arrestin-2 recruitment assay. Type of data set: cell-based. Further details: host or cells: CHO-K1. Conditions: for Emax: read-out: β-arrestin-2 %Emax ± SEM. On the procedure:
Cells were stimulated with test ligands for 90 min. Compounds were prepared at 5× concentration in DPBS containing 0.1% BSA and 0.125% Tween-80 to minimise aggregation. β-arrestin recruitment was quantified using the PathHunter® β-Arrestin Assay (DiscoverX 93-0001) following the manufacturer’s instructions. Luminescence was recorded after 18 h using a PHERAstar® FS plate reader.
A general note: Recruitment of arrestin is a read-out of receptor activation apart from second messengers.

The target in data set [1] is Leu336Ala GPR84 (GPR84-Gi2 fusion protein) (Homo sapiens, UniProt Q9NQS5, L336A). Put plainly: Competition binding assay with orthosteric antagonist [3H]140. As for the experimental part:
Binding was initiated by the addition of 5 μg membrane protein generated from Flp-In™ T-REx™ cells induced to express the receptor construct of interest with 100 ng/ml doxycycline. Nonspecific binding of the radioligand was determined in the presence of 10 μM compound 837. All assays were performed at 25 °C for 1 h before termination by the addition of ice-cold phosphate-buffered saline (PBS) and vacuum filtration through GF/C glassfibre filter-bottom 96-well microplates using a UniFilter FilterMate Harvester (Revvity). Each well was washed three times with ice-cold PBS and filters were allowed to dry for 2–3 h before addition of 50 μl of Ultima Gold™ XR. Radioactivity was quantified by liquid scintillation spectrometry.

The next data set deals with T5, Leu336Ala GPR84 (Homo sapiens, UniProt Q9NQS5, L336A).
T5 construct: expressed in transfected cells
Briefly: pThr263/pThr264 immunoblot of immunoprecipitated GPR84-eYFP. Type of data set: cell-based. Conditions: 1 μM. On the procedure: as §2

In another data set the target is T6, Phe187Ala GPR84 (Homo sapiens, UniProt Q9NQS5, F187A).
T6 construct: expressed in transfected cells
The data set is described as above. Type of data set: cell-based. Conditions: 1 μM, compared to OX04954 and OX04539. As for the experimental part:
as §2

A short description of data set [2]: pKa measurement (Sirius T3 UV-metric and pH-metric titration). It counts as physicochemical. Conditions: 25 °C, ionic strength 0.15 M; read-out: measured pKa of the hydroxyl group. As for the experimental part:
OX04529 pKa was determined using a UV-metric titration method on a Sirius T3 with a combination Ag/AgCl pH electrode. 5 μL of OX04529 stock solution was added to 25 μL of a neutral linear buffer. The sample was then pre-acidified to pH < 2.0 using 0.5 M HCl and titrated three times until pH > 12.0 using 0.5 M KOH. Titrations were carried out at a constant ionic strength of 0.15 M (adjusted with KCl) and maintained at 25.0 ±0.5 °C. UV absorbance data across varying wavelengths and pH values were recorded. Molar absorption profiles and species distribution plots were generated in the Sirius T3 software, from which apparent pKa value was calculated.
OX04529 pKa was measured using pH-metric titration on the Sirius T3 system. The solution was pre-acidified to pH < 3.0 with 0.5 M HCl and titrated three times until pH > 11.0 using 0.5 M KOH.

Broadly, the Emax is the size of the effect at its maximum, as opposed to the concentration needed. A word on the Ki: it is the dissociation constant of the complex between target and ligand, obtained from inhibition or displacement. A high value points to a looser hold on the target. For orientation: pKa means the negative logarithm of the acid dissociation constant.

Take `Cc1cc(CCCc2cc(O)c[n+]([O-])c2)ccc1Cl` [OX04954]: the EC50 is 5.75 nM at GPR84 F187A; 30.9 nM at GPR84 S331A; 50.1 nM on GPR84 Y332F; 93.3 nM at GPR84 (wild type GPR84, CHO-K1 PathHunter, read-out: β-arrestin-2 pEC50 ± SEM (converted)). In addition, the figures for the Emax on GPR84 S331A, on GPR84 Y332F (HEK-293T) and at GPR84 were 66 ± 7%, 40 ± 4% and 71 ± 1.3%, respectively. For the same compound, the “phosphorylation of Thr263 and Thr264 (immunoblot)” value at wild type GPR84 is listed as “promoted phosphorylation”. The “change in efficacy in β-arrestin-2 recruitment” value at GPR84 (compared to OX04929 (so in the source)) is “no significant change”.
`[O-][n+]1cc(O)cc(CCc2ccc(Cl)c(C(F)(F)F)c2)c1` [OX04529]: the EC50 on GPR84 F187A is 3.8 nM; at GPR84 S331A it was 28.8 nM. Further, the “efficacy in promoting interaction with β-arrestin-1” value at GPR84 F187A (Phe187Ala GPR84, HEK293T) is on record as “substantial efficacy”. For the same compound, the values for the Emax at GPR84 S331A and at GPR84 were 24 ± 6% and 10 ± 1.5%, respectively. Moreover, in data set [1], the affinity corresponds to a Ki of 1.51 nM. In addition, the “phosphorylation of Thr263 and Thr264 (immunoblot)” value at Leu336Ala GPR84 was “full agonist”; on Phe187Ala GPR84 it was “partial effect”; at wild type GPR84 it was “ineffective”. Further, the pKa in data set [2] amounted to 6.26.

The record behind these values is paper doi:10.1101/2025.07.30.667614, “Steric control of signaling bias in the immunometabolic receptor GPR84” (bioRxiv, 2025).
